Measured values taken from article PMC12072223 (CPT: Pharmacometrics & Systems Pharmacology, 2025).
Several values for one entry are separate records, joined by “and”; a condition that tells them apart may be missing. Equal entries are not always repeated. Where two headings read alike, the source gives them in different places. Each block holds one molecule with its values, some of them ahead of it.

Experiments:
[1] = system: OAT1/3; experiment: Effect of OAT inhibitors on PDA pharmacokinetics in clinical DDI studies; details: for AUC ratio / Cmax ratio: PDA; for AUC(0-t) / Cmax: both, human, in vivo
[2] = PDA, cited from earlier work
[3] = parameters: species or system human; details: PDA; in vitro-in vivo scaling
[4] = target: T1, OAT1 (Homo sapiens, UniProt Q4U2R8); experiment: PDA uptake in OAT1-transfected HEK293 cells and RAF scaling; type: in vitro ADME
T1 sequence (Q4U2R8 1-563): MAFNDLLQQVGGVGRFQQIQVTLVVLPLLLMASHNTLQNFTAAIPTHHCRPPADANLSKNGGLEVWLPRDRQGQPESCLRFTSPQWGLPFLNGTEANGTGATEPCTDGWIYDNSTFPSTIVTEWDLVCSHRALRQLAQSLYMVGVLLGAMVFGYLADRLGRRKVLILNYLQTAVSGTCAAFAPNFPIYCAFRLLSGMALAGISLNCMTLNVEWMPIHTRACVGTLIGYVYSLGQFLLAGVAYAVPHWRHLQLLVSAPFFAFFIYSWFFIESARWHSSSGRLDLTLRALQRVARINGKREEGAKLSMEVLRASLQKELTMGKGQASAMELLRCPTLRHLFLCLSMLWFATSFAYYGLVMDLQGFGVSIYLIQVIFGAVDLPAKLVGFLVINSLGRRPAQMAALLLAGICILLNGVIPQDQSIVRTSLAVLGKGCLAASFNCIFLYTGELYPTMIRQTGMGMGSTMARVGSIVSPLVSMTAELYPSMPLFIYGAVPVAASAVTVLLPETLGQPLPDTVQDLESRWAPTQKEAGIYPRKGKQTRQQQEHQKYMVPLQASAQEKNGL

[5] = system: OAT1/3; details: PDA, cited from earlier work
[6] = target: T2, OAT3 (Homo sapiens, UniProt Q8TCC7); experiment: PDA uptake in OAT3-transfected HEK293 cells and RAF scaling; type: in vitro ADME
T2 sequence (Q8TCC7 1-542): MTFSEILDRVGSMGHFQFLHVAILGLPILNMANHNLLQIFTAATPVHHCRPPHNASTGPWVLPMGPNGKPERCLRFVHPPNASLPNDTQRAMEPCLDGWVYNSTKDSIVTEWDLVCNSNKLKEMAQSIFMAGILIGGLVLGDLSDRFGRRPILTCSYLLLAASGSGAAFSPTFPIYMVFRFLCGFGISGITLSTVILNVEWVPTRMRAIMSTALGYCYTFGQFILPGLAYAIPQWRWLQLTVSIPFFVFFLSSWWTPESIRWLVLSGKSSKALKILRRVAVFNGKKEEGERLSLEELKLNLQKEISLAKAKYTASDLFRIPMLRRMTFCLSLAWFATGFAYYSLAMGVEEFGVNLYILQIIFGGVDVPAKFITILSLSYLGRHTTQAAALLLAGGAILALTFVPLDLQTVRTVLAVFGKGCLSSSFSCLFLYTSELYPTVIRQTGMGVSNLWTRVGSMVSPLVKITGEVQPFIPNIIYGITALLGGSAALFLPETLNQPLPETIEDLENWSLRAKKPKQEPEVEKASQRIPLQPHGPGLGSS

[7] = target: T3, OAT2 (Homo sapiens, UniProt Q9Y694); experiment: PDA uptake in OAT2-transfected HEK293 cells and RAF scaling; type: in vitro ADME
T3 sequence (Q9Y694 1-546 isoform Q9Y694-2): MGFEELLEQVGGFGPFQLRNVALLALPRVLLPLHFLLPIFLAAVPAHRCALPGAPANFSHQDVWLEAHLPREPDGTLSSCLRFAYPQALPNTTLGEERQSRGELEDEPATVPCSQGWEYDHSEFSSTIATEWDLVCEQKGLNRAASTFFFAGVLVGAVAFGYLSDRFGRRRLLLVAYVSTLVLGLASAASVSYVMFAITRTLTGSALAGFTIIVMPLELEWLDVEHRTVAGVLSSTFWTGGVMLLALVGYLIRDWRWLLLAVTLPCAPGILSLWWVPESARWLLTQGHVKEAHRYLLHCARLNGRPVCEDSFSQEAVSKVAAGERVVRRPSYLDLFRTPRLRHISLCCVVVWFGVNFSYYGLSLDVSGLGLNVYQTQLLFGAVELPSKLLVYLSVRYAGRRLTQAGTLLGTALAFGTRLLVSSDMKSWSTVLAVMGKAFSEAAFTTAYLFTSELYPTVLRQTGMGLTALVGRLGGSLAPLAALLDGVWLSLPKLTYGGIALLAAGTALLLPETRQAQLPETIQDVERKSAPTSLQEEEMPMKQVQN

[8] = PDA plasma and urine levels at baseline in five clinical studies; type: in vivo, human; details: for AUC(0-t) / Cmax / concentration at 0 min / CL renal: human; for AUC(0-t) / Cmax / concentration at 0 min: plasma; for AUC(0-t): AUC0-24h; for concentration at 0 min: predose (0 min) plasma concentration; for CL renal: CLR
[9] = target: T2, OAT3; experiment: Inhibition of OAT3-mediated uptake in transfected HEK293 cells; type: in vitro ADME; details: from in vitro IC50 values
[10] = presence/absence of probenecid 1000 mg BID, Study 1
[11] = presence/absence of ritlecitinib 200 mg QD, Study 2
[12] = physiological scalars and relative activity factors
[13] = Shen 2019 Study 1, presence/absence of probenecid
[14] = Shen 2019 Study 1, probenecid 1000 mg single oral dose
[15] = Shen 2019 Study 2, presence/absence of probenecid
[16] = Shen 2019 Study 2, probenecid 1000 mg single oral dose
[17] = Willemin 2021, presence/absence of probenecid
[18] = Willemin 2021, probenecid 500 mg multiple oral doses
[19] = both, PDA plasma, Study 1 baseline (no inhibitor), n=12
[20] = both, PDA plasma, Study 2 baseline, n=12
[21] = both, PDA plasma, Study 3 baseline, n=12
[22] = male, PDA plasma, Study 5 baseline, males, n=23

- change in PDA plasma concentration in the clinic ([1]; ritlecitinib): no‐change
- change in the AUC0-24h and Cmax of PDA ([1]; ritlecitinib administration, Study 2): no significant change
SMILES: C=CC(=O)N1C[C@H](Nc2ncnc3[nH]ccc23)CC[C@@H]1C [Ritlecitinib]

- AUC ratio [1, 10]: 3.2
- Cmax ratio [1, 10]: 3
- AUC ratio [1, 11]: 1.1
- Cmax ratio [1, 11]: 1.1
- AUC ratio ([1]; presence/absence of tafamidis 61 mg, Study 3): 1.2
- AUC(0-t) ([1]; 200 mg): 72.8 ± 22.6 ng·h/mL
- Cmax ([1]; 200 mg): 3.9 ± 1 ng/mL
- AUC(0-t) ([1]; 1000 mg): 235 ± 76 ng·h/mL
- Cmax ([1]; 1000 mg): 11.9 ± 3.4 ng/mL
- contribution of glomerular filtration to total CLR [3]: 5% and ~ 5%
- ft (fraction transported) OAT1 ([4]; PDA renal secretion): < 0.1
- contribution of OAT1-specific active secretion to total CLR ([4]; PDA, in vitro-in vivo scaling): 7%
- active uptake clearance via OAT1, scaled [4, 12]: 3.31 mL/min/kg
- ft (fraction transported) OAT3 ([6]; PDA renal secretion): 0.82
- active uptake clearance via OAT3, scaled [6, 12]: 7.55 mL/min/kg
- ft (fraction transported) OAT2 ([7]; PDA renal secretion): < 0.1
- contribution of OAT2-specific active secretion to total CLR ([7]; PDA, in vitro-in vivo scaling): 6%
- active uptake clearance via OAT2, scaled [7, 12]: 0.35 mL/min/kg
- intra-individual variability in plasma concentration across 0-24 h ([8]; PDA): 16 % CV
- amount excreted unchanged in urine lower in White males than Japanese males ([8]; PDA, Studies 4 and 5): 35%
- variability in predose plasma concentrations and AUC0-24h ([8]; PDA, across the five studies): < 6 fold
- inter-individual (overall) variability in plasma concentration ([8]; PDA, all five studies, n = 71): ~ 40% and < 40%
- overall variability in AUC0-24h ([8]; PDA, five studies): 38%
- overall variability in predose plasma concentration ([8]; PDA, five studies): 44%
- AUC0-24h / baseline plasma level higher in White males than Japanese males ([8]; PDA, p < 0.05): 38%
- CLR lower in White males than Japanese males ([8]; PDA, p < 0.05): ~ 54%
- amount excreted in urine higher in Japanese males than White males ([8]; PDA, p < 0.05): 1.5 fold
- renal clearance higher in Japanese males than White males ([8]; PDA, p < 0.05): 2.2 fold and ~ 2.2 fold
- average AUC0-24h and Cmax lower in Hispanic/Latino compared to Whites ([8]; PDA, p > 0.05): ~ 30%
- AUC0-24h higher in Study 5 compared to Study 4 ([8]; PDA, ~70% White males vs all Japanese males): 35%
- AUC(0-t) [8, 19]: 86.7 ± 47.4 ng·h/mL
- AUC(0-t) [8, 20]: 70.5 ± 24.3 ng·h/mL
- AUC(0-t) [8, 21]: 64.2 ± 21.2 ng·h/mL
- Cmax [8, 19]: 4.6 ± 2.5 ng/mL
- Cmax [8, 20]: 3.8 ± 1.3 ng/mL
- Cmax [8, 21]: 3.5 ± 1.1 ng/mL
- concentration at 0 min ([8]; both, mean, PDA, across the five studies): 3.3 ng/mL
- concentration at 0 min ([8]; both, range, PDA, across the five studies): 1.6 to 9.2 ng/mL
- AUC(0-t) ([8]; male, PDA plasma baseline, males only, Japanese (13)): 56.5 ± 15.2 ng·h/mL
- AUC(0-t) ([8]; male, PDA plasma baseline, males only, White (37)): 78.2 ± 28.2 ng·h/mL
- AUC(0-t) [8, 22]: 74.6 ± 15.7 ng·h/mL
- Cmax [8, 22]: 4.6 ± 1.9 ng/mL
- CL renal ([8]; male, urine and plasma, PDA, Study 5 baseline): 230 ± 54.2 mL/min
- CL renal ([8]; male, urine, PDA, Japanese males (13)): 546 ± 122 mL/min
- CL renal ([8]; male, urine, PDA, White males (16)): 250 ± 48.2 mL/min
SMILES: Cc1ncc(CO)c(C(=O)O)c1O [PDA, Pyridoxic acid]
- fu,plasma [2]: 0.08–0.1
- fu,plasma ([2]; ref 13 (supplement ref 7)): 0.092
- inter-individual variability in predose plasma concentrations ([5]; Indian population): 33 fold and ~ 33 fold
- AUC0-24h ([5]; Shen 2019 Study 1, baseline): 46 ± 53.7 ng·h/mL
- CLR ([5]; Shen 2019 Study 1, baseline): 226.7 ± 268.3 mL/min
- Cmax ([5]; Shen 2019 Study 1, baseline): 3.3 ± 4.6 ng/mL
- AUC ratio [5, 13]: 3.1
- CLR ratio [5, 13]: 0.37
- Cmax ratio [5, 13]: 3.1
- AUC0-24h [5, 14]: 116 ± 151 ng·h/mL
- CLR [5, 14]: 65 ± 55 mL/min
- Cmax [5, 14]: 9.3 ± 11.5 ng/mL
- AUC0-24h ([5]; Shen 2019 Study 2, baseline): 57.9 ± 75.7 ng·h/mL
- CLR ([5]; Shen 2019 Study 2, baseline): 221.7 ± 221.7 mL/min
- Cmax ([5]; Shen 2019 Study 2, baseline): 3.6 ± 4.5 ng/mL
- AUC ratio [5, 15]: 3.2
- CLR ratio [5, 15]: 0.4
- Cmax ratio [5, 15]: 3.4
- AUC0-24h [5, 16]: 152 ± 174 ng·h/mL
- CLR [5, 16]: 67.6 ± 41.2 mL/min
- Cmax [5, 16]: 10.1 ± 10.2 ng/mL
- AUC0-24h ([5]; Willemin 2021, baseline): 71.8 ± 21.3 ng·h/mL
- CLR ([5]; Willemin 2021, baseline): 328.3 ± 203.3 mL/min
- Cmax ([5]; Willemin 2021, baseline): 3.6 ± 0.8 ng/mL
- AUC ratio [5, 17]: 3.7
- CLR ratio [5, 17]: 0.17
- Cmax ratio [5, 17]: 3.7
- AUC0-24h [5, 18]: 271 ± 93 ng·h/mL
- CLR [5, 18]: 53.3 ± 25 mL/min
- Cmax [5, 18]: 13.7 ± 4.1 ng/mL

- potency as inhibitor for OAT3 versus OAT1 [9]: 5 fold
SMILES: CCCN(CCC)S(=O)(=O)c1ccc(C(=O)O)cc1 [Probenecid]
